Columns and labels:
DBA/2J mice [1] = conditions: baseline 100 seconds; cited from earlier work
C57BL/6J mice [2] = conditions: 10 mg/kg, last 4 minutes of 6-minute forced swim, unmedicated 143 seconds; cited from earlier work
C57BL/6J mice [3] = test: forced-swim test, C57BL/6J mice; type: in vivo, mouse; conditions: for immobility in forced-swim test: last 4 minutes of 6-minute test
Method: Briefly, in the Porsolt forced swim test, swim sessions are conducted by placing animals in containers with a level of water selected to be deep enough so that the animal cannot touch the bottom with its hind limbs or tail, nor can it escape. Two swim sessions are conducted, an initial 15 minute pretest one day prior to administration of the antidepressant drug and a second 5 minute test after administration of the drug (e.g., infusion of the drug into the midbrain) is begun. Each animal's 5 minute test sessions are videotaped for scoring later. The amount of time the animal spends active (swimming, exploring or trying to escape) and the time the rat is immobile (not struggling and making only those movements necessary to keep its head above water) is measured. Drugs with anti-depressant like activity decrease the immobility time.
(§1) As described above, the murine responses in forced swim and tail suspension tests provides a model for determining depression. We tested C57BL/6J and DBA/2J mice in the forced-swim and tail-suspension tests. In the forced-swim test, mice were gently placed in a clear plastic cylinder, diameter of 16 cm, height 25 cm, filled with 10 cm of clear water at 25° C. Test duration was 6 minutes and immobility, defined as the absence of all movement except minor movement required for the mouse to keep its head above the surface, was measured during the last 4 minutes. In the tail-suspension test, mice were suspended from a metal rod mounted 50 cm above the surface by fastening the tail to the rod with adhesive tape. The duration of the test was 6 minutes and immobility, defined as the absence of all but respiratory movements, was measured during the last 4 minutes. During the last 4 minutes of a 6-minute forced swim, unmedicated inbred C57BL/6J mice spent 152 seconds of the possible 240 seconds immobile (FIG. 2). In contrast, inbred DBA/2J mice had baseline (unmedicated) immobilities of 47 seconds (see FIG. 2). […] We investigated the hypothesis that the differences between these two inbred mouse lines that result in differing baseline immobilities in the forced-swim test at least in part arise from differences in the amount of mRNA that accumulates from specific genes.
We purchased some of the compound (Toronto Research Chemicals Inc., 2 Brisbane Rd., North York, Ontario, Canada M3J 2J8) and dissolved it in phosphate-buffered saline (PBS) containing 2.5 percent methanol.
When plain PBS/methanol solution (without 3Ac-SL0101) was administered to C57BL/6J mice, their immobility was 127 seconds. When the solution containing the 3Ac-SL0101 compound was administered in a very low dose, their immobility was reduced to 78 seconds, indicative of an antidepressant-like effect. […] When the compound was administered to DBA/2J mice, it was effective at an approximately 10-fold lower dose than in C57BL/6J mice, highly consistent with the notion that it is functioning by reducing the activity of rpS6.

p90 RSK = conditions: cited from earlier work
mice = test: tail-suspension test; conditions: mouse, in vivo
Method: An additional procedure for monitoring the effects of antidepressants involves suspending the mice by the tail from a lever and recording movements of the animal. The total duration of the test (usually about 6 minutes) can be divided into periods of agitation and immobility. Antidepressants will generally decrease the duration of immobility (Stem et al., Psychopharmacology 85(3) 367-70). A computerized version of this test, referred to as […]-TST has been developed and is well known to those of skill in that art as a primary screening test for antidepressant activity (Stem et al., Prog. Neuropsychpharmacol. Biol. Psychiatry 11(6)659-671, 1987). Additional devices for monitoring depression also are known to those of skill in the art (Nomura et al., Yakubutsu Seishiiz Kodo 12(5)207-13, 1992).
As described above, the murine responses in forced swim and tail suspension tests provides a model for determining depression. We tested C57BL/6J and DBA/2J mice in the forced-swim and tail-suspension tests. […] Test duration was 6 minutes and immobility, defined as the absence of all movement except minor movement required for the mouse to keep its head above the surface, was measured during the last 4 minutes. […] The duration of the test was 6 minutes and immobility, defined as the absence of all but respiratory movements, was measured during the last 4 minutes. […]

[4] = tested on: p90 ribosomal S6 kinase, or RSK; conditions: cultured tumor cells; cited from earlier work
DBA/2J mice [5] = test: forced-swim test, DBA/2J mice; type: in vivo, mouse; conditions: DBA/2J mice versus C57BL/6J mice
Method: as §1, with “genes. […]” for “genes.”

RSK2 = RSK2 (Homo sapiens, UniProt P51812); conditions: cited from earlier work
Chain of RSK2 (P51812 whole entry): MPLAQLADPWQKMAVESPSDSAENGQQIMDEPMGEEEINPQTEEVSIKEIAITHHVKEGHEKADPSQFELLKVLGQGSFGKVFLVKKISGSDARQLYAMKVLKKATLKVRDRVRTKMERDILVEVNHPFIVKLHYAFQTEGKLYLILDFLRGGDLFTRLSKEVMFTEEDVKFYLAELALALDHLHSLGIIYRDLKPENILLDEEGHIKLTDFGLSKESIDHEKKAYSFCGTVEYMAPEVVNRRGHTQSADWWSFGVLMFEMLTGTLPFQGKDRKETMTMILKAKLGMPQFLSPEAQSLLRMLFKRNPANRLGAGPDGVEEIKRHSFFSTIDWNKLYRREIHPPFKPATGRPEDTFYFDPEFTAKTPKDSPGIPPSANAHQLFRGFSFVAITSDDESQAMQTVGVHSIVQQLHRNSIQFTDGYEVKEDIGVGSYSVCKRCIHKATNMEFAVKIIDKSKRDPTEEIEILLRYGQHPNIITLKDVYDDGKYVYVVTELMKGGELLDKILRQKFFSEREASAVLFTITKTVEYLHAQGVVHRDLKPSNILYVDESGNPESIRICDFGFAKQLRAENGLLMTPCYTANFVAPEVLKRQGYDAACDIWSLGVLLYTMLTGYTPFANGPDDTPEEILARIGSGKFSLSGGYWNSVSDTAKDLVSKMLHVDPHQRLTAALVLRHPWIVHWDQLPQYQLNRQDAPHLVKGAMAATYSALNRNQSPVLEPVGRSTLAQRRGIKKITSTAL

CNCCCN1c2ccccc2CCc2ccccc21 [desipramine]
immobility in forced swim (DBA/2J mice [1]): 50 s
immobility in forced swim (C57BL/6J mice [2]): 100 s

CC(C)CCN1c2nc(Nc3cc(F)c(O)c(F)c3)ncc2N(C)C(=O)C1C (stereo not shown) [BI-D1870]
time of immobility in forced swim test (C57BL/6J mice [3]; FIG. 4): substantial reduction
inhibition of p90 RSK (p90 RSK): specific inhibitor of the p90 RSK

CC(=O)O[C@@H]1[C@@H](OC(C)=O)[C@H](C)O[C@@H](Oc2c(-c3ccc(O)cc3)oc3cc(O)cc(O)c3c2=O)[C@@H]1OC(C)=O [3Ac-SL0101]
immobility in tail-suspension test (mice): reduced immobility
inhibition of RSK activity [4]: inhibits the activity of this kinase
immobility in forced-swim test (C57BL/6J mice [3]; 20-fold higher dose): 0 s
dose response of immobility in forced-swim test (C57BL/6J mice [3]; varying dosages, FIG. 3): monotonic dose-response effect
immobility in forced-swim test (C57BL/6J mice [3]; very low dose, PBS/methanol control 127 seconds): 78 s
effective dose in DBA/2J mice relative to C57BL/6J mice (DBA/2J mice [5]): approximately 10 fold lower dose

CNCCC(Oc1ccc(C(F)(F)F)cc1)c1ccccc1 (stereo not shown) [fluoxetine]
immobility in forced swim (DBA/2J mice [1]): 50 s

O=c1c(O)c(-c2ccc(O)cc2)oc2cc(O)cc(O)c12 [kaempferol]
inhibition of RSK2 (RSK2): inhibitor of the RSK2
immobility time in forced-swim test (C57BL/6J mice [3]; dose dependent manner, within minutes after intraperitoneal injection): reduce immobility time
